Source: patent US9874565B2, “Oncogene associated with human cancers and methods of use thereof” (Dana-Farber Cancer Institute, Inc., priority 2013, dated 2018)

System: hMECs transformed with MECP2
Test: growth inhibition of hMECs transformed with MECP2 compared with isogenic cells transformed by activated RAS
Assay type: cell-based, human
Excerpt: Because MECP2 only binds to methylated CpG sequences and hydroxymethylcytosine, and because data have shown that oncogenic activation of MECP2 depends upon its DNA-binding region, […] it is likely that the oncogenic activity of MECP2 is mediated by binding of the protein to methylated CpG sequences of hydroxymethylated cytosine. For this reason, it was investigated whether DNA methylation inhibitors hinder cell growth in a MECP2-dependent manner. DNA methylation inhibitors prevent the formation of both methylated CpG sequences and hydroxymethylated cytosine.
MECP2 is known to be present in a complex with Class I histone deacetylases. […] This led to investigation of whether MECP2-transformed cells were particularly vulnerable to HDAC inhibitors. […] Furthermore, it was shown that combined treatment with the DNA methylation inhibitor 5-azacytdine and the HDAC inhibitor Trichostatin A is synergistic in a hMEC experimental system.

Structure (SMILES)	sensitivity of hMECs transformed with MECP2 relative to isogenic cells transformed by activated RAS (DNA methylation inhibitors, MECP2-transformed vs activated RAS-transformed isogenic hMECs)	susceptibility of MECP2-transformed cells relative to isogenic cells transformed by activated RAS (HDAC inhibitor, MECP2-transformed vs activated RAS-transformed isogenic cells)
Nc1ncn([C@@H]2O[C@H](CO)[C@@H](O)[C@H]2O)c(=O)n1 [5-azacytidine]	an order of magnitude more sensitive	–
CC(/C=C/C(=O)NO)=C\[C@@H](C)C(=O)c1ccc(N(C)C)cc1 [Trichostatin A]	–	an order of magnitude more susceptible
